# In patent publication US20230301885A1, “NOVEL USE” (DSM IP ASSETS B.V., priority 2020, published 2023):
# Experiments:
# S. epidermidis [1] = experiment: Microbiome balance model, S. epidermidis/S. aureus co-culture: S. epidermidis; format: cell-based, Staphylococcus epidermidis; details: co-culture with S. aureus
# Protocol: (§1) The term ‘share’ as used herein refers to the share of each (individual) microbe, based on the total number of microbes in the respective group of microbes in % (i.e. the at least two, preferably all dry or sebaceous skin microbes as defined herein, respectively S. epidermidis and ), either before or after inoculation (as indicated). The share is calculated using the colony count of the respective (individual) microbe divided by the sum of the colony counts of all microbes of the respective microbiota * 100%.
# (§2) 5 mL of TSB (Tryptic Say Broth) to which no (Ref.1) or 500 µL of 2 wt.-% of 1,3-propanediol (1,3-PDO) in PBS (Phosphate-buffered saline) have been added. Then this solutions have been inoculated by 500 µL of the respective calibrated mixture of the microbes as outlined below. Directly after inoculation and/or after 4 hours of incubation at 37° C., 100 µL have been taken and plated on an Agar gel petri dish. The microbes have then been counted based on the colony specific morphology and/or size.
# (§3) All shares have been rounded.
# S. aureus = experiment: Microbiome balance model, S. epidermidis/S. aureus co-culture: S. aureus; format: cell-based, Staphylococcus aureus; details: co-culture with S. epidermidis
# Protocol: as §1, §2, §3
# C. acnes = experiment: Microbiome balance model, sebaceous skin mixture: C. acnes; format: cell-based, Cutibacterium acnes; details: 4 h at 37° C.
# Protocol: (§4) Thus, in particular the term ‘by not unproportionally affecting the growth of anyone thereof’ refers to a balancing of at least two, preferably all dry skin or sebaceous skin microbes as defined herein in the mutual presence thereof, wherein only small changes in the difference in the (individual) shares of the microbes compared to the corresponding shares of the control are observed. Preferably, the small changes in the (individual) share (after 4 h of incubation at 37° C.) is less than ±15%, in particular less than ±10%, most in particular less than ±7.5%, compared to the control. Said change in the share is calculated as: share of the respective microbe within the group of at least two, preferably all microbes of dry or sebaceous skin in the presence of 1,3-PDO [%] minus share of the same microbe within the same group of microbes in the absence of 1,3-PDO [%], both after 4 h of incubation at 37° C. as illustrated in the example.
# (§5) The ‘not unproportionally affected growth’ can also be assessed by determining an overall impact value, by • (1) assessing the impact of the ingredient on the individual microbe (i) and assigning an individual impact value x′(i) to said microbe as outlined below: • [formula] • If x(i) is • a) ≤ 0.1 then an integer x′(i) of 1 is assigned (no impact) • b) >0.1 ≤ 0.5then an integer x′(i) of 2 is assigned (slight impact) • c) > 0.5 then an integer x′(i) of 3 is assigned (significant impact), followed by • (2) assessing the overall effect of the ingredient on the respective microbiome by calculating the overall impact value y with formula (II) • [formula] • with n being the total number of microbes in the respective microbiota, wherein a good balancing is characterized by an overall impact value y of less than 2, preferably less than 1.75, most preferably less than 1.7.
# as §2, §3
# S. epidermidis [2] = experiment: Microbiome balance model, sebaceous skin mixture: S. epidermidis; format: cell-based, Staphylococcus epidermidis; details: 4 h at 37° C.
# Protocol: as §4, §5, §2, §3
# S. hominis = experiment: Microbiome balance model, sebaceous skin mixture: S. hominis; format: cell-based, Staphylococcus hominis; details: 4 h at 37° C.
# Protocol: as §4, §5, §2, §3
# S. capitis = experiment: Microbiome balance model, sebaceous skin mixture: S. capitis; format: cell-based, Staphylococcus capitis; details: 4 h at 37° C.
# Protocol: as §4, §5, §2, §3
# S. mitis = experiment: Microbiome balance model, sebaceous skin mixture: S. mitis; format: cell-based, Streptococcus mitis; details: 4 h at 37° C.
# Protocol: as §4, §5, §2, §3
# C.simulans = experiment: Microbiome balance model, sebaceous skin mixture: C. simulans; format: cell-based, Corynebacterium simulans; details: 4 h at 37° C.
# Protocol: as §4, §5, §2, §3
# M. globosa = experiment: Microbiome balance model, sebaceous skin mixture: M. globosa; format: cell-based, Malassezia globosa; details: 4 h at 37° C.
# Protocol: as §4, §5, §2, §3
# [3] = system: microbes of sebaceous skin; experiment: Microbiome balance model, sebaceous skin mixture: total of all microbes; format: cell-based; details: 4 h at 37° C.
# Protocol: Preferably, the difference in total number of said at least two, preferably all microbes, compared to the respective total number in the absence of 1,3-propanediol (i.e. the control), after 4 h of incubation at 37° C., is within a range of ±50%, preferably ±40%, more preferably ±15%, most preferably ±10%.
# as §5, §2, §3
# [4] = after 4 hours of incubation at 37° C.
# [5] = directly after inoculation, 500 µL of 2 wt.-% in PBS in 5 mL TSB
structure (smiles),measurement,setting,value
"CCCC(O)CO (stereo not shown) [pentylene glycol, 1,2-pentanediol, reference compound]",CSE4h counts of colony of S. epidermidis,S. epidermidis [1]; [4],3200 CFU/ml
same,CSE4h share of S. epidermidis,S. epidermidis [1]; [4],55%
same,CSE0 share of S. epidermidis,S. epidermidis [1]; directly after inoculation,80%
same,CSE0 counts of colony of S. epidermidis,S. epidermidis [1]; [5],1100 CFU/ml
same,"share of S. aureus, effect in words",S. aureus; 4 hours of incubation,not reduced
same,CSA4h counts of colony of S. aureus,S. aureus; [4],3900 CFU/ml
same,CSA4h share of S. aureus,S. aureus; [4],45%
same,CSA0 share of S. aureus,S. aureus; directly after inoculation,20%
same,CSA0 counts of colony of S. aureus,S. aureus; [5],280 CFU/ml
same,C. acnes change in share vs control,C. acnes,-19.5%^1
same,C. acnes counts of colony,C. acnes,2000 CFU/ml
same,C. acnes share,C. acnes,20%
same,"C. acnes valuation, impact value x(i)′",C. acnes,3^3 (> 0.5 then an integer x′(i) of 3 is assigned (significant impact))
same,S. epidermidis change in share vs control,S. epidermidis [2],+17%^1
same,S. epidermidis counts of colony,S. epidermidis [2],3300 CFU/ml
same,S. epidermidis share,S. epidermidis [2],32%
same,"S. epidermidis valuation, impact value x(i)′",S. epidermidis [2],3^3 (> 0.5 then an integer x′(i) of 3 is assigned (significant impact))
same,S. hominis counts of colony,S. hominis,2100 CFU/ml
same,S. hominis share,S. hominis,21%
same,"S. hominis valuation, impact value x(i)′",S. hominis,2^3 (>0.1 ≤ 0.5then an integer x′(i) of 2 is assigned (slight impact))
same,S. capitis counts of colony,S. capitis,1100 CFU/ml
same,S. capitis share,S. capitis,11%
same,"S. capitis valuation, impact value x(i)′",S. capitis,3^3 (> 0.5 then an integer x′(i) of 3 is assigned (significant impact))
same,S. mitis change in share vs control,S. mitis,+0.5%^1
same,S. mitis counts of colony,S. mitis,380 CFU/ml
same,S. mitis share,S. mitis,4%
same,"S. mitis valuation, impact value x(i)′",S. mitis,2^3 (>0.1 ≤ 0.5then an integer x′(i) of 2 is assigned (slight impact))
same,C.simulans change in share vs control,C.simulans,-3%^1
same,C.simulans counts of colony,C.simulans,450 CFU/ml
same,C.simulans share,C.simulans,4%
same,"C.simulans valuation, impact value x(i)′",C.simulans,2^3 (>0.1 ≤ 0.5then an integer x′(i) of 2 is assigned (slight impact))
same,M. globosa change in share vs control,M. globosa,+1%^1
same,M. globosa counts of colony,M. globosa,830 CFU/ml
same,M. globosa share,M. globosa,8%
same,"M. globosa valuation, impact value x(i)′",M. globosa,2^3 (>0.1 ≤ 0.5then an integer x′(i) of 2 is assigned (slight impact))
same,Change of total CFU/ml vs control,[3],+2.60%^2
same,Total counts of colony,[3],10160 CFU/ml
same,Total share,[3],100%
same,overall impact value y,[3],2.4^4
same,"share of the microbes of sebaceous skin, effect in words","[3]; in contrast to 1,3-propanediol",alter the share of the microbes of sebaceous skin to a greater extend
